Consider nine compounds from patent US6017932A, “Pharmaceutical compositions containing at least one NSAID having increased bioavailability” (priority 1996, dated 2000).

“Also recorded” adds a separate entry of the source. Where two headings read alike, the source gives them in different places.

The conditions of data set [1]: cited from earlier work.
Data set [2] concerns histamine release, neutrophil myeloperoxidase pathway, bradykinin activity, phosphodiesterase type IV and others. The note with it: in words; cited from earlier work.
The conditions of data set [3]: cited from earlier work; for effect of Piperine on bio-availability (in words): with Piperine; for mean increase in AUC: formulations with Piperine vs without.
The subject of data set [4] is COX-II. The note with it: vs COX-I; cited from earlier work.
The nature of data set [5]: Plasma levels of Nimesulide in rats after composition with/without Piperine (Experiment I). It counts as in vivo, albino rats. Here is the method:
The rats were housed 5 per cage with food and water provided ad libidum.
On the day of experimentation the rats were randomised into ten batches of 5 rats each. Four groups were formed. Group I consisted of one batch of 5 rats, which was kept as control which received no drug treatment. Group II consisted of four batches of five rats each. […] Rats of batch I from Group II were sacrificed 60 minutes post treatment after Chloroform anaesthesia. Batch 2,3 and 4 were similarly sacrificed at 120 min., 240 min. and 360 min. post treatment respectively. Blood was collected from the rats from the ventricle into heparinised tubes.
Group III consisted of one batch of 5 rats, which received only Piperine at a dose level of 1.0 mg/kg body wt. The animals were sacrificed 160 minutes post treatment after Chloroform anaesthesia. Blood was collected from the rats from the ventricle into heparinised tubes.
Group IV consisted of 4 batches of 5 rats each. […] Rats of batch 1 from Group IV were sacrificed 60 minutes post treatment after Chloroform anaesthesia. Batch 2, 3 and 4 were similarly sacrificed at 120 min., 240 min. and 360 min. post treatment respectively. Blood was collected from the rats from the ventricle into heparinised tubes.
The blood samples were centrifuged at 3700 rpm and the plasma separated. To 1 ml plasma 0.5 ml of HCl was added and then extracted with 2 ml of benzene. Extracted benzene was evaporated in a water bath at 95° C. and reconstituted with 100 μl of mobile phase and 10 μl was injected into the HPLC.
Waters HPLC fitted with C8 μ Bondapack was used along with Waters UV-Vis detector (254 nm). Acetonitrile 50% with 50% Ammonium di-hydrogen Phosphate (0.01M) in double distilled, filtered (0.22 μ) water was used as the mobile phase.
Unpaired student T test was applied on the data. Level of significance was fixed at p<0.05.

For data set [6] the following is noted: cited from earlier work. The source holds these as a separate data set.
The conditions of data set [7]: relative to other NSAIDs; cited from earlier work.
Data set [8] deals with renal prostaglandin synthesis. As to conditions: rats; cited from earlier work.
A short description of data set [9]: in vivo. As to conditions: rat, plasma, po, 10 mg/kg.
Protocol: The single test point pharmacokinetic studies were performed in two groups of rats. […] Rats were sacrificed at 90 minutes. post treatment and blood samples were analysed by HPLC.
The conditions of data set [10]: rectal, nimesulide 100 and 200 mg; cited from earlier work.
Data set [11] relates to plasma proteins. The note with it: human; cited from earlier work.
Data set [12] deals with yeast-induced fever. The note with it: rats with yeast-induced fever; cited from earlier work.
Data set [13] concerns painful inflammatory conditions. As to conditions: cited from earlier work.
For data set [14] the following is noted: in words; cited from earlier work.
Setting [15] is: oral, 50 to 200 mg nimesulide, healthy adult volunteers.

As for `CS(=O)(=O)Nc1ccc([N+](=O)[O-])cc1Oc1ccc(O)cc1` [4-hydroxy-nimesulide], the accumulation entry in data set [1] (patients with moderate renal impairment) is “Slight accumulation”. The other effects result in data set [2] is listed as “appears to contribute to the anti-inflammatory activity”.
Consider `CC[C@@H](CO)NCCN[C@@H](CC)CO` [Ethambutol], for which, in data set [3], the “effect of Piperine on bio-availability (in words)” value was “increase bio-availability”.
Regarding `NNC(=O)c1ccncc1` [Isoniazid], in data set [3], the “mean increase in AUC” value was 131%.
Take `COc1ccc2cc(CCC(C)=O)ccc2c1` [Nabumetone]: the “COX-II selectivity (in words)” value in data set [4] is “selectively inhibit the detrimental COX-II”.
Consider `CS(=O)(=O)Nc1ccc([N+](=O)[O-])cc1Oc1ccccc1` [Nimesulide, N-(4-nitro, 2-phenoxyphenyl) methanesulfonamide], for which the “Concentration of the drug in plasma” value in data set [5] (240 min, Nimesulide alone 1.8 mg/kg) stood at 4.6 ± 1.4 kg/mL. In [5] (rat, plasma, po, 1.8 mg/kg), this compound yielded a concentration at 1 h of 5800 ± 1700 µg/mL, a concentration at 2 h of 7900 ± 2300 µg/mL, a concentration at 4 h of 4600 ± 1400 µg/mL and a concentration at 6 h of 2200 ± 1100 µg/mL. Further, the “effect of food on absorption” value in [6] (concomitant administration of food) is listed as “may decrease the rate, but not the extent, of absorption”. Moreover, the “apparent volume of distribution” value in data set [6] (following oral administration) is 0.19 to 0.35 L/kg. In addition, the “dose excreted unchanged in the urine” value in data set [6] (human, in vivo, po) is recorded as 1 to 3%. In data set [6] (in words), the biotransformation result was “almost completely biotransformed into 4-hydroxy-nimesulide” and the oral drug absorption entry is “nearly complete”. Further, in data set [6] (setting [15]), the peak serum concentrations was 1.98 to 9.85 mg/L and the “time to peak serum concentration” value was 1.22 to 3.17 h. In data set [6] (parent compound), the elimination half-life is 1.56 to 4.95 h. In [7], the “ulcerogenicity / gastric tolerance” value is “less ulcerogenic than aspirin, indomethacin, naproxen, piroxicam and ibuprofen; also recorded: better gastric tolerance than other commonly used NSAIDs”. Besides, the “effect on renal prostaglandin synthesis” value in data set [8] was “little effect on renal prostaglandin synthesis in rats”. In addition, the “pharmacokinetic profile in special populations” value in data set [1] (children, elderly volunteers, moderately impaired renal function (creatinine clearance 1.8 to 4.8 L/h)) is given as “not significantly altered”. Besides, the other effects result in [2] is “appears to exert its effects on histamine release, the neutrophil myeloperoxidase pathway, bradykinin activity, tumour necrosis factor-a release, cartilage degradation, metalloprotease synthesis, phosphodiesterase type IV inhibition, platelet aggregation and synthesis of platelet activating factor”. Also, the concentration at 1.5 h in [9] stood at 8820 µg/mL. Besides, in [10], the peak serum concentrations is 2.14 to 2.32 mg/L and the “time to peak serum concentration” value is 3 to 4.58 h. The “bound to plasma proteins” value in [11] was 99%. Besides, in data set [12], the antipyretic potency result is “superior antipyretic potency to indomethacin, ibuprofen, aspirin and paracetamol (acetaminophen)”. The onset of analgesia entry in data set [13] (human, in vivo) was “rapid onset of analgesia”. The “efficacy in cancer pain” value in data set [13] (in words) is “highly efficaceous in cancer pain”. For the same compound, the “clinical efficacy vs placebo” value in data set [13] (oral mostly 200 mg/day or rectal 400 mg/day) is on record as “more effective than placebo”. The “clinical efficacy vs other NSAIDs” value in data set [13] (vs piroxicam, ketoprofen, naproxen, etodolac, mefenamic acid, diclofenac and others) is given as “at least as effective as therapeutic dosages of other NSAIDs”.
Take `O=C(/C=C/C=C/c1ccc2c(c1)OCO2)N1CCCCC1` [Piperine, (E, E) 1-[5-(1,3-benzodioxyl-5-yl)-1-oxo-2,4-pentadenyl] piperidine]: in [5] (120 min. post treatment, Nimesulide 1.8 mg/kg with or without Piperine 1.0 mg/kg, oral, rats), the “Plasma levels of Nimesulide” value was “Nil”. For the same compound, in [14], the solubility / insolubility result was “soluble in benzene, chloroform, ether, ethyl acetate, dichloromethane, alcohol, acetic acid and insoluble in water, pet. ether”.
Consider `NC(=O)c1cnccn1` [Pyrazinamide], for which the “mean increase in AUC” value in data set [3] is 36%.
For the compound `CO[C@H]1/C=C/O[C@@]2(C)Oc3c(C)c(O)c4c(O)c(c(/C=N/N5CCN(C)CC5)c(O)c4c3C2=O)NC(=O)/C(C)=C\C=C\[C@H](C)[C@H](O)[C@@H](C)[C@@H](O)[C@@H](C)[C@H](OC(C)=O)[C@@H]1C` [Rifampicin], in data set [3], the “mean increase in AUC” value is listed as 37.6%.
On to `CCCCNC(=O)NS(=O)(=O)c1ccc(C)cc1` [tolbutamide], for which the “effect of Piperine on bio-availability (in words)” value in data set [3] was “no effect on enhancing the bio-availability”.
